According to ChEMBL document CHEMBL1133687, “Structure-based design of novel bicyclic nonpeptide inhibitors for the src SH2 domain” (J Med Chem, 2000):
pIC50: −log10 of the molar value.

Molecular target: Proto-oncogene tyrosine-protein kinase Src (Homo sapiens, UniProt P12931)
Assay: Binding affinity against Src SH2 domain in competitive fluorescence polarization assay

Chain of Proto-oncogene tyrosine-protein kinase Src (P12931 2-536 limits assumed): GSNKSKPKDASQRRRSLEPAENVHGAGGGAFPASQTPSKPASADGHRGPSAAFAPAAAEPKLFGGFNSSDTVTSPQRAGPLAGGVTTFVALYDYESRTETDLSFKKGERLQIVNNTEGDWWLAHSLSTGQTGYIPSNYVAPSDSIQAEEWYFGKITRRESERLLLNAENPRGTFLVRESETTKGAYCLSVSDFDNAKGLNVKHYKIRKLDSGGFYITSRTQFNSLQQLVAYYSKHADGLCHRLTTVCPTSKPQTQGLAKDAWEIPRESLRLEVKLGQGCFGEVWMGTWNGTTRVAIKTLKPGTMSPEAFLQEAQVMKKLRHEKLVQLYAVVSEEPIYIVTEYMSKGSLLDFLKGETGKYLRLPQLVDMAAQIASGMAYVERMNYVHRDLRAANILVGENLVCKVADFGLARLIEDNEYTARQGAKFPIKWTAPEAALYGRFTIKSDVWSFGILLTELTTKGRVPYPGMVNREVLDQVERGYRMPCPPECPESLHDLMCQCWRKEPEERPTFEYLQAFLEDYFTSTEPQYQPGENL

Row | Structure (SMILES) | pIC50
1 | CC(=O)N[C@@H](Cc1ccc(OP(=O)(O)O)cc1)C(=O)N[C@H]1CCCCc2cc(OCC3CCCCC3)c(C(N)=O)cc21 | 7.00
2 | CC(=O)N[C@@H](Cc1ccc(OP(=O)(O)O)cc1)C(=O)N[C@H]1CCCOc2cc(OCC3CCCCC3)c(C(N)=O)cc21 | 6.70
3 | CC(=O)N[C@@H](Cc1ccc(OP(=O)(O)O)cc1)C(=O)N[C@@H]1CCCCc2cc(OCC3CCCCC3)c(C(N)=O)cc21 | 5.09
4 | CC(=O)N[C@@H](Cc1ccc(OP(=O)(O)O)cc1)C(=O)N[C@@H]1CCCOc2cc(OCC3CCCCC3)c(C(N)=O)cc21 | 5.80
5 | CC[C@H](C)[C@H](NC(=O)[C@H](CCC(=O)O)NC(=O)[C@H](CCC(=O)O)NC(=O)[C@@H](N)Cc1ccc(OP(=O)(O)O)cc1)C(=O)O | 5.25
